Laboratory results: patent US6790608B2, “Methods of identifying and ADP-glucose receptor ligand, agonist or antagonist” (The Regents of the University of California, priority 2000, dated 2004)
“Also recorded” adds a separate entry of the source. Read-outs that look alike come from different tables or passages of the source.

Experiments:
[1] = test system: guinea pig ileum; test: Isometric contractions of guinea pig ileal segments in organ bath
Procedure: Ileal segments (about 2 cm) were prepared from male guinea pigs euthanized by asphyxiation with CO2 and mounted in an organ bath filled with Krebs-Ringer bicarbonate (KRB) buffer as described in Thomas et al., Mol. Pharmacol. 44:102-110 (1993). Isometric contractions of the preparations were measured with a force transducer and recorded on a polygraph (Grass Instruments). The contractile responses are expressed as the mass (g) required to generate the measured force. For contractile measurements of field-stimulations, ilea were mounted between platinum ring electrodes connected to a stimulator (Grass SD9). Ilea were electrically stimulated (40 mV, 8 ms duration, 0.2 Hz) for 5 min followed by a resting period of 8-10 min.
Drugs were diluted in KRB and added directly to the bath. For intraluminal drug application a polyethylene tube (I.D.: 2 mm; length: 1.2 cm) was inserted about 3 mm deep into the ileum and fixed with a surgical thread. The other end of the preparation was closed tightly by a thread. The intubated ilea were mounted in the organ bath in such a way that the open end of the polyethylene tube was extending above the buffer surface. Drugs were administered to the ileal lumen using a Hamilton syringe. After each incubation, ilea were washed three times with KRB and allowed to equilibrate for at least 10 min. For some experiments ilea were removed from animals that had been treated with 100 μg/kg pertussis toxin three days prior to the experiment. Dose response curves were obtained in separate experiments for each drug concentration tested in duplicate and EC50 values were calculated using GraphPad Prism.
However, due to the irregular nature of these contractions it was not possible to study dose-response relationships of pharmacological agents in such a preparation. Therefore, field-stimulation was used to elicit contractions that are known to be mediated by neuronal release of acetylcholine activating M3 muscarinic receptors (Cowie et al., Brit. J. Pharmacol. 64:565-580 (1978); Kilbinger et al., Eur. J. Pharmacol. 103:313-320 (1984)).

[2] = molecular target: T1, human ADP-glucose receptor (Homo sapiens, UniProt Q9H244); test: Intracellular calcium mobilization (FLIPR, Fluo4-AM) in CHO cells transiently transfected with the cloned receptor; type: cell-based; settings: for induction of increase in intracellular Ca2+ / receptor activation: CHO cells cotransfected with receptor, Gα16 and chimeric Gαqi3; for increase in intracellular Ca2+ in untransfected cells: untransfected CHO cells
T1 construct: such that a nucleic acid molecule encoding a full-length ADP-glucose receptor can be amplified; expressed in transfected cells
T1 sequence (Q9H244 whole entry): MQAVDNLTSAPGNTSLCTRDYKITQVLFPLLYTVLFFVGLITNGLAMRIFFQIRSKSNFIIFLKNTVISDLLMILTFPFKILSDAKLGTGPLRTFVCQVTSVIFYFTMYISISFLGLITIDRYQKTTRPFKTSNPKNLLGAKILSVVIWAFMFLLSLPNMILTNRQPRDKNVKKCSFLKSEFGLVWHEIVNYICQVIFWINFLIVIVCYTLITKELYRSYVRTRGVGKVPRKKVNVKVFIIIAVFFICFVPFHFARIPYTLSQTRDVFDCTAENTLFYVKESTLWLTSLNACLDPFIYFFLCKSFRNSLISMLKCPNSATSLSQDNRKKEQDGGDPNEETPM
Procedure: (§1) In order to characterize the function of the encoded receptor, the pCDNA3.1 expression construct containing the amplified receptor gene was transiently transfected into human embryonic kidney (HEK 293) cells or Chinese hamster ovary (CHO) cells. HEK 293 cells were cultured in DMEM containing 10% fetal bovine serum (FBS), and CHO cells were cultured in alpha-MEM with 5% FBS. All cells were kept at 37° C. in a 5% CO2 atmosphere.
(§2) For certain experiments, the cells were transiently cotransfected with the receptor construct and equimolar ratios of the G-protein alpha subunit Gα16 and/or the chimeric subunit […] in pCDNA3.1 (described in Saito et al., Nature 265-269 (1999)). For functional assays measuring intracellular calcium, twenty-four hours after transfection, cells were seeded into black clear-bottom 96-well plates at a density of 50,000 cells/well. Following overnight incubation the cells were loaded for 1 h with 1 μM of the fluorescent calcium indicator dye Fluo4-AM (Molecular Probes) dissolved in assay buffer containing Hank's balanced salts, 20 mM HEPES, 1% FBS, 2.5 mM probenecid, pH 7.4. After loading, the cells were washed three times with assay buffer without FBS. Addition of drugs and measurement of changes in intracellular calcium were performed using a fluorimetric imaging plate reader (FLIPR, Molecular Devices). Agonist responses were determined using the maximum change in fluorescence over baseline.
To enforce coupling of the novel receptor to the phospholipase C pathway, CHO cells were transiently cotransfected with expression constructs containing the amplified receptor DNA, Gα16 and a chimeric Gαq subunit carrying the C-terminal tail of Gαi3.
Dose-response curves were calculated using GraphPad Prism (GraphPad Software Inc.).
In order to determine the preferential G-protein coupling of the ADP-glucose receptor, mobilization of [Ca^2+]i was examined in CHO cells expressing either the receptor alone or in combination with either Gα16 or Gαqi3.

[3] = test system: isolated frog heart; settings: cyclic perfusion; cited from earlier work
[4] = test system: unanesthetised frogs; settings: systemic administration; cited from earlier work
[5] = test system: endogenous ADP-glucose receptor in HEK 293 cells; test: Intracellular calcium mobilization (FLIPR, Fluo4-AM) in HEK 293 cells; type: cell-based, human
Procedure: as §1, §2
The ADP-glucose receptor construct was also expressed in HEK 293 cells.

[6] = test system: rat arterial tissues; test: Contraction of precontracted rat arterial rings in organ bath; settings: for EC50: read-out: EC50 of relaxation
Procedure: Rat arterial tissues were prepared as described previously (Duckles, S. P., J. Pharmacol. Exp. Ther. 240: 697-700 (1987); Sara Sangha et al., J. Appl. Physiol. 88: 507-517 (2000)). Briefly, male Wistar rats (250 g) were sacrificed by decapitation. The thoracic and abdominal aorta and the carotid artery were immediately removed and cleaned of adhering tissue. Arteries were cut into rings (about 3 mm in length) and mounted into an organ bath filled with Kreb-Ringer-bicarbonate buffer at 37° C. (buffer composition: 119.2 mM NaCl, 25 mM NaHCO3, 4.9 mM KCl, 1.2 mM MgSO4, 11.1 mM glucose, 0.114 mM ascorbic acid, pH 7.4). The buffer was aerated by bubbling with 95% O2:5% CO2. Arterial rings were connected to a force transducer and isometric contractions of the preparations were recorded using MacLab. The contractile responses are expressed as the mass (g) required to generate the measured force. The arterial preparations were equilibrated for one hour at a resting force of 2 g and then challenged several times with 100 mM KCl to establish a baseline.
To determine the effect of ADP-glucose on evoked contractions, arterial rings were precontracted with either 0.3 μM phenylephrine or 0.3 μM serotonin. ADP-glucose was subsequently added to the arterial rings in a cumulative manner to establish a dose-response relationship between ADP-glucose concentration and arterial ring contraction. At the end of each experiment, residual constriction was reversed by the addition of 1 μM acetylcholine. Each arterial preparation was tested in triplicate with each cumulative dosage scheme carried out at least twice. Data are expressed as means±S.E.M. and dose-response curves were calculated with Prism (GraphPad, San Diego).

[7] = CHO cells transiently transfected with receptor construct together with Gα16 and Gαqi3, read-out: EC50 of transient increase in [Ca2+]i
[8] = untransfected HEK 293 cells, endogenous receptor, read-out: EC50 of [Ca2+]i increase
[9] = carotid arteries, serotonin-induced constrictions

Nc1ncnc2c1ncn2[C@@H]1O[C@H](COP(=O)(O)OP(=O)(O)OC[C@H]2OC(O)[C@H](O)[C@@H]2O)[C@@H](O)[C@H]1O (stereo partly shown) [ADP-ribose]
effect on electrically-evoked contractions ([1]; field-stimulated ileum, drug added to bath): very similar inhibitory effects | induction of increase in intracellular Ca2+ / receptor activation [2]: partial agonist; also recorded: induced a dose-dependent and transient increase | EC50 [2, 7]: 59.4 ± 7.3 µM | increase in intracellular Ca2+ in untransfected cells [2]: not in untransfected cells | effect on action potential in the sinus node [3]: decrease in the action potential duration and rate of rise in the sinus node | effect on heart rate and contraction force [3]: dose-dependent decrease in heart rate and contraction force | effect on heart rate [4]: reversible increase in heart rate | [Ca2+]i response in HEK 293 cells [5]: full agonist | EC50 [5, 8]: 38.7 ± 10.6 µM

Nc1ncnc2c1ncn2[C@@H]1O[C@H](CO)[C@@H](O)[C@H]1O [adenosine]
induction of increase in intracellular Ca2+ / receptor activation [2]: only ADP-glucose and ADP-ribose induced a dose-dependent and transient increase

Cc1cn([C@H]2C[C@H](O)[C@@H](COP(=O)(O)OP(=O)(O)O[C@H]3O[C@H](CO)[C@@H](O)[C@H](O)[C@H]3O)O2)c(=O)[nH]c1=O [TDP-glucose]
induction of increase in intracellular Ca2+ / receptor activation [2]: only ADP-glucose and ADP-ribose induced a dose-dependent and transient increase | [Ca2+]i response in HEK 293 cells [5]: did not respond

Nc1ncnc2c1ncn2[C@@H]1O[C@H](COP(=O)(O)OP(=O)(O)OP(=O)(O)O)[C@@H](O)[C@H]1O [ATP]
induction of increase in intracellular Ca2+ / receptor activation [2]: only ADP-glucose and ADP-ribose induced a dose-dependent and transient increase

Nc1ncnc2c1ncn2[C@@H]1O[C@H](COP(=O)(O)OP(=O)(O)O[C@H]2O[C@H](CO)[C@@H](O)[C@H](O)[C@@H]2O)[C@@H](O)[C@H]1O [ADP-mannose]
induction of increase in intracellular Ca2+ / receptor activation [2]: only ADP-glucose and ADP-ribose induced a dose-dependent and transient increase; also recorded: unable to activate the receptor

Nc1ncnc2c1ncn2[C@@H]1O[C@H](COP(=O)(O)O)[C@@H](O)[C@H]1O [AMP]
induction of increase in intracellular Ca2+ / receptor activation [2]: only ADP-glucose and ADP-ribose induced a dose-dependent and transient increase

Nc1ncnc2c1ncn2[C@@H]1O[C@H](COP(=O)(O)OP(=O)(O)O[C@H]2O[C@H](CO)[C@@H](O)[C@H](O)[C@H]2O)[C@@H](O)[C@H]1O [ADP-glucose, adenosine 5′-diphosphoglucose]
maximal inhibition of histamine-evoked contractions ([1]; contractions produced by 0.3 μM histamine): 60% | EC50 ([1]; contractions produced by 0.3 μM histamine, read-out: EC50 of inhibition of histamine-evoked contractions): 6.2 ± 1.8 µM | EC50 ([1]; field-stimulated, untreated ileum, read-out: EC50 of inhibition of electrically evoked contractions): 6.64 ± 0.4 µM | maximal inhibition of electrically evoked contractions ([1]; ileum from pertussis toxin treated animals): 40% | EC50 ([1]; ileum from pertussis toxin treated animals, read-out: EC50 of inhibition of electrically evoked contractions): 35.5 ± 5.5 µM | effect on electrically-evoked contractions ([1]; ileum punctured to release intraluminal content into the bath): strong inhibition | effect on field-stimulated contractions ([1]; intraluminal administration): no effect | maximal inhibition of electrically evoked contractions ([1]; maximally effective concentrations, untreated ileum): 90% | effect on contractions produced by oxotremorine M ([1]; muscarinic agonist oxotremorine M): unaffected | effect on spontaneous contractions ([1]; spontaneous contractions, ileum preparations): inhibition of spontaneous contractions | EC50 ([2]; CHO cells cotransfected with receptor and Gαqi3, read-out: EC50 of [Ca2+]i mobilization): 8.2 ± 1.3 µM | induction of increase in intracellular Ca2+ / receptor activation [2]: induced a dose-dependent and transient increase | EC50 ([2]; CHO cells expressing receptor alone, read-out: EC50 of [Ca2+]i mobilization): 24 ± 4.1 µM | EC50 [2, 7]: 2.98 ± 0.22 µM | EC50 ([2]; CHO cells, receptor with Gα16, read-out: EC50 of [Ca2+]i mobilization): 11.8 ± 2.4 µM | increase in intracellular Ca2+ in untransfected cells [2]: not in untransfected cells | [Ca2+]i response in HEK 293 cells [5]: strong mobilization of [Ca^2+]i | EC50 ([5]; HEK 293 cells transiently cotransfected with cloned receptor and Gα16, read-out: EC50 of intracellular Ca2+ release): 2.5 ± 0.82 µM | EC50 [5, 8]: 2.9 ± 0.51 µM | EC50 ([6]; abdominal aorta, precontracted with 0.3 μM phenylephrine): 6.67 ± 1.8 µM | EC50 ([6]; abdominal aorta, precontracted with 0.3 μM serotonin): 3.26 ± 0.12 µM | maximal relaxation ([6]; abdominal aorta, serotonin-precontracted): about 80% | maximal relaxation [6, 9]: 40% | EC50 [6, 9]: 20.5 ± 6.3 µM | EC50 ([6]; carotid artery, precontracted with 0.3 μM phenylephrine): 3.1 ± 0.3 µM | maximal relaxation ([6]; phenylephrine-precontracted, highest concentration tested, all three tissues): 40%-50% | EC50 ([6]; thoracic aorta, precontracted with 0.3 μM phenylephrine): 13.8 ± 2.8 µM | response of serotonin-precontracted thoracic aorta ([6]; thoracic aorta, serotonin-precontracted): unresponsive | effect on untreated arterial tissue ([6]; untreated arterial tissue at resting force): no effect

Nc1nc2c(ncn2[C@@H]2O[C@H](COP(=O)(O)OP(=O)(O)O[C@H]3O[C@H](CO)[C@@H](O)[C@H](O)[C@H]3O)[C@@H](O)[C@H]2O)c(=O)[nH]1 [GDP-glucose]
induction of increase in intracellular Ca2+ / receptor activation [2]: only ADP-glucose and ADP-ribose induced a dose-dependent and transient increase | [Ca2+]i response in HEK 293 cells [5]: did not respond

Nc1ncnc2c1ncn2[C@@H]1O[C@H](COP(=O)(O)OP(=O)(O)O)[C@@H](O)[C@H]1O [ADP]
induction of increase in intracellular Ca2+ / receptor activation [2]: only ADP-glucose and ADP-ribose induced a dose-dependent and transient increase

Nc1ccn([C@@H]2O[C@H](COP(=O)(O)OP(=O)(O)O[C@H]3O[C@H](CO)[C@@H](O)[C@H](O)[C@H]3O)[C@@H](O)[C@H]2O)c(=O)n1 [CDP-glucose]
induction of increase in intracellular Ca2+ / receptor activation [2]: only ADP-glucose and ADP-ribose induced a dose-dependent and transient increase | [Ca2+]i response in HEK 293 cells [5]: did not respond
